Test results published in US9249129B2, “Morpholino substituted urea derivatives as mTOR inhibitors” (CELLZOME LIMITED, priority 2010, dated 2016).

Tests used:
PI3Kβ = target: T1, PI3Kβ (Homo sapiens, UniProt P42338); experiment: kinobeads assay, PI3K beta (dot blot detection); type: binding; conditions: Table 4, read-out: Inhibition values (IC50) PI3Kb
T1 construct: endogenous in cells; host or cells: Jurkat cells (ATCC TIB-152) lysate, the only lysate described

[1] = target: T2, DNA-dependent protein kinase (DNA-PK) (Homo sapiens, UniProt P78527); experiment: kinobeads assay, DNA-PK (dot blot detection); type: binding; conditions: Table 4, read-out: Inhibition values (IC50) DNAPK
T2 construct: endogenous in cells; host or cells: Jurkat cells (ATCC TIB-152, clone E6-1), lysate
Procedure, shortened: (§1)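 Jurkat cell lysate (5 mg/ml protein) was incubated with test compounds and kinobeads (immobilized phenylthiazole and phenylmorpholin-chromen ligands) for 2 h in the cold with shaking. Bead-bound kinase was SDS-eluted and quantified by antibody dot blot with infrared detection. IC50 values came from dose-response curves.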

mTOR = target: T3, mTOR (Homo sapiens, UniProt P42345); experiment: mTOR kinobeads assay (dot blot detection); type: binding; conditions: Table 4, read-out: Inhibition values (IC50) mTOR
T3 construct: endogenous in cells; host or cells: Jurkat cells (ATCC TIB-152, clone E6-1), lysate
Procedure, shortened: as §1

PI3Kγ = target: T4, PI3Kγ (Homo sapiens, UniProt P48736); experiment: kinobeads assay, PI3K gamma (dot blot detection); type: binding; conditions: Table 4, read-out: Inhibition values (IC50) PI3Kg
T4 construct: endogenous in cells; host or cells: Jurkat cells (ATCC TIB-152) lysate, the only lysate described
T4 sequence (P48736 whole entry): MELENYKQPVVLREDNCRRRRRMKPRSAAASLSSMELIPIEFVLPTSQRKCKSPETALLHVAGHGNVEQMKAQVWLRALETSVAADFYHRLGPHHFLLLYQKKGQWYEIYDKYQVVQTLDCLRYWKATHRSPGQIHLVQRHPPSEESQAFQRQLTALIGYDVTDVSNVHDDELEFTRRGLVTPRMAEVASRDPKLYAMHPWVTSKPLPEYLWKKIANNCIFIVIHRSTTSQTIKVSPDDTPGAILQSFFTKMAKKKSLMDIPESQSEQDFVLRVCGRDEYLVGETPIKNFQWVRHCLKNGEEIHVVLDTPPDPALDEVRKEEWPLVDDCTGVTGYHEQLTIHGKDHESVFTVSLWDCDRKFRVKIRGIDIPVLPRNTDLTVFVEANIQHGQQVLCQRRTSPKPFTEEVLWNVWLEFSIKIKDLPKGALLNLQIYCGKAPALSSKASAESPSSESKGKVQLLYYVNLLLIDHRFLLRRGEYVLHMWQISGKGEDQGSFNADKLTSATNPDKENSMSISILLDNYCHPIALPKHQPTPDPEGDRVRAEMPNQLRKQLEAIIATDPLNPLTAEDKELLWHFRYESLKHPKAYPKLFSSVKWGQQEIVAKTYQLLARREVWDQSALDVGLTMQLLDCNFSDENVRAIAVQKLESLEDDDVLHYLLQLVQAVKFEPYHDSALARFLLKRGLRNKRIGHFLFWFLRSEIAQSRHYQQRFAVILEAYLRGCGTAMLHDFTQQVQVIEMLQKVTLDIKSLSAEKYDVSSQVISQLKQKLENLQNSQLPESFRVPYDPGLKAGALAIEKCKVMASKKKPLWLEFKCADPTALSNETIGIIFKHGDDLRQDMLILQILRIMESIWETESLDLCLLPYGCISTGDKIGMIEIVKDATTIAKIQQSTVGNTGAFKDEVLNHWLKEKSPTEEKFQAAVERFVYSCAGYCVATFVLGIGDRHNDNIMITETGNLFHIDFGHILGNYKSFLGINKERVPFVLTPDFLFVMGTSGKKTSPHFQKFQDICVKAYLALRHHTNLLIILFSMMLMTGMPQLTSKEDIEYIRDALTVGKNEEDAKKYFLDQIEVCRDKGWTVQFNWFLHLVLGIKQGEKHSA

PI3Kα = target: T5, PI3Kα (Homo sapiens, UniProt P42336); experiment: kinobeads assay, PI3K alpha (dot blot detection); type: binding; conditions: Table 4, read-out: Inhibition values (IC50) PI3Ka
T5 construct: endogenous in cells; host or cells: Jurkat cells (ATCC TIB-152) lysate, the only lysate described
T5 sequence (P42336 whole entry): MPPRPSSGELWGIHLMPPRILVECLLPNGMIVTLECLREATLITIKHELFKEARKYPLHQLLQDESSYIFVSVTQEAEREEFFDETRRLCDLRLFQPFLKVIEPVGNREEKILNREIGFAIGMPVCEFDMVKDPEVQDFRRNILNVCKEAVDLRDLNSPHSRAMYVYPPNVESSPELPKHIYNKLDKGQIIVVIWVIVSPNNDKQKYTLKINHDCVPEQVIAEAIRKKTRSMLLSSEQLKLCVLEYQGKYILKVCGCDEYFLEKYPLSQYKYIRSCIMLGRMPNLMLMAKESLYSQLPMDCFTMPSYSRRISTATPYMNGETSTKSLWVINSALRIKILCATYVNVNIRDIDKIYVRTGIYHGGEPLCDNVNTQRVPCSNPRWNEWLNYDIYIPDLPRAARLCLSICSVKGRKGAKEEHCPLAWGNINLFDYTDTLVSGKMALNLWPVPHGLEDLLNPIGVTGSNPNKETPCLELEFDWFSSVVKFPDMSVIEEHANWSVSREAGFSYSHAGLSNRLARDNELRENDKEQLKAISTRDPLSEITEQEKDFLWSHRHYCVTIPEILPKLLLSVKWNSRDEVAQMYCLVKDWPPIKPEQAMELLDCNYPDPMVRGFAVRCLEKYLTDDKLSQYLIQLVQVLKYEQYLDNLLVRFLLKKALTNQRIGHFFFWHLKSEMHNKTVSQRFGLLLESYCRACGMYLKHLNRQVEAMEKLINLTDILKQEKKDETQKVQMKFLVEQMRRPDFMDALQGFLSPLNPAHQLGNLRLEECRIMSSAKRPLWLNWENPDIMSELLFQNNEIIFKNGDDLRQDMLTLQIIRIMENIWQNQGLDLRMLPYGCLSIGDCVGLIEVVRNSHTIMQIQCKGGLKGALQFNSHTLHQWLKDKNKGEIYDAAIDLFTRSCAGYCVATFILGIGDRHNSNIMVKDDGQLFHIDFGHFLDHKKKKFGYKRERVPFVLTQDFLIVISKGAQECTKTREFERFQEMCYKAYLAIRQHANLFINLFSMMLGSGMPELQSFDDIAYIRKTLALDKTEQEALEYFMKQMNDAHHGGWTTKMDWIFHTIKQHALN
T5 sequence (P27986 whole entry partner): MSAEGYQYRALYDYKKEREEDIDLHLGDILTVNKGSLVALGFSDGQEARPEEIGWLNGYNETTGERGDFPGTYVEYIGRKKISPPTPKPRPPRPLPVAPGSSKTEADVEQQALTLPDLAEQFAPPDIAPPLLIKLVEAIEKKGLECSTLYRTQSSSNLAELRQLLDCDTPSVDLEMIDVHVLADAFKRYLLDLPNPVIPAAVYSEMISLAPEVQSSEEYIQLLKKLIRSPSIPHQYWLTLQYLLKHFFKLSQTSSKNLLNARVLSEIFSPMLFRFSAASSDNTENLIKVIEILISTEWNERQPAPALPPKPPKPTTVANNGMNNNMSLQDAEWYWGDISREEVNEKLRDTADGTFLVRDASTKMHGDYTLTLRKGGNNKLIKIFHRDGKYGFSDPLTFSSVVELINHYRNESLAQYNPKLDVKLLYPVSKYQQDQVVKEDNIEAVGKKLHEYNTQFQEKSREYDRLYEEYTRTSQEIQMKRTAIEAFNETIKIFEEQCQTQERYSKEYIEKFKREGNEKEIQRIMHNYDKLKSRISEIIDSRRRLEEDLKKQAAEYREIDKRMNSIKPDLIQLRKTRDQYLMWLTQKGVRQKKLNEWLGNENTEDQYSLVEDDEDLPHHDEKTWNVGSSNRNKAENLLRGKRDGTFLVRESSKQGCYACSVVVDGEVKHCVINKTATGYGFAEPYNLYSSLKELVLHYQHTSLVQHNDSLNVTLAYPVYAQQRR

PI3K delta (PI3Kd) = target: T6, PI3K delta (PI3Kd) (Homo sapiens, UniProt O00329); experiment: kinobeads assay, PI3K delta (dot blot detection); type: binding; conditions: Table 4, read-out: Inhibition values (IC50) PI3Kd
T6 construct: endogenous in cells; host or cells: Jurkat cells (ATCC TIB-152, clone E6-1), lysate
T6 sequence (O00329 whole entry): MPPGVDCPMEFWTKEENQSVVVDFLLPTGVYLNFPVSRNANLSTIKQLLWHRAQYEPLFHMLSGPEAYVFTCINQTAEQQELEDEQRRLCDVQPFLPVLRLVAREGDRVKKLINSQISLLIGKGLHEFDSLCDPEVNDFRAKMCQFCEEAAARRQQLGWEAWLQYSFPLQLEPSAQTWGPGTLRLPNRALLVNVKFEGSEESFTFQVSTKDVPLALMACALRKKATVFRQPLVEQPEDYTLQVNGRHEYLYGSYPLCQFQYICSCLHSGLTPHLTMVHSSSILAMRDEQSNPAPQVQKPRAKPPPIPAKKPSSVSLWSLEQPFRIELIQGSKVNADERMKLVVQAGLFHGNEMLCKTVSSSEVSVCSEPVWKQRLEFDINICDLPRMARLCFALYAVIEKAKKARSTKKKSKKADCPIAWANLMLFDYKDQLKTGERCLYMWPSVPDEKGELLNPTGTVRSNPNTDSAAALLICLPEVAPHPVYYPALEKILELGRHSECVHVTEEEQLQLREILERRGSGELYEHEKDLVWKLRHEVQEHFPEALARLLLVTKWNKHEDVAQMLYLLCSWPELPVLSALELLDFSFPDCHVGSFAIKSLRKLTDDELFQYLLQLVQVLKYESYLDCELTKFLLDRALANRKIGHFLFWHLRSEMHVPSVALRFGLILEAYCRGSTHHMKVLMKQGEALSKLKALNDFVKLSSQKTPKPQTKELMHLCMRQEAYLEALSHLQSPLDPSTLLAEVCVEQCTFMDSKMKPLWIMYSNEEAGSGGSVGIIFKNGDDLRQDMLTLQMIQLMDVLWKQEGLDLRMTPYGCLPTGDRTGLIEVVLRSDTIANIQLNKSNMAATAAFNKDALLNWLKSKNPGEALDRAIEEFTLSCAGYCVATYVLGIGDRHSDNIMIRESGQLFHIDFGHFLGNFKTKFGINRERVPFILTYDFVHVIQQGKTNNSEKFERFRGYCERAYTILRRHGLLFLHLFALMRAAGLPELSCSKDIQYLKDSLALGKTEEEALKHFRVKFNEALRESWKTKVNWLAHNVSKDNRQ
T6 sequence (P27986 whole entry partner): as the sequence (P27986 whole entry partner) above
Procedure, shortened: as §1

[2] = tested on: Akt serine-473 phosphorylation in HEK293T/17 cells; experiment: In vitro phospho-Akt cellular assay (pAkt S473); type: cell-based; conditions: Homo sapiens, Table 6, 2 hours, Akt Ser473, read-out: pAKT (Phospho-Akt cell assay data, activity level)
From the text: In Vitro Phospho-S6 and Phospho-Akt Cellular Assay
Activation of mTOR signaling results in phosphorylation of several downstream targets. In cells, mTOR exists in two different protein complexes. The mTOR Complex-1 (mTORC1) phosphorylates and activates S6 Kinase 1 (S6K1) and S6 Kinase 2 (S6K2) (also known as p70S6K) which then phosphorylate S6 Ribosomal Protein (S6RP) (also known as RPS6). S6RP is phosphorylated on serine 235, serine 236, serine 240 and serine 244 by both pS6K1 and pS6K2. The mTOR Complex-2 (mTORC2) phosphorylates AKT on serine 473 which activates the AKT signaling pathway.
The assay measures a test compound's inhibition of S6RP serine-240/244 phosphorylation and inhibition of Akt serine-473 phosphorylation in human embryonic kidney derived HEK293T/17 cells (ATCC CRL-11268).
The HEK293T/17 cell line is maintained in DMEM media (Invitrogen catalogue number 41965-039) supplemented with 10% FCS at 37° C. in a 5% CO2 humidified incubator.
Cells are seeded in 96-well plates at 40,000 cells/well (pS6RP S240/244 assay) or 80,000 cells/well (pAkt 5473 assay) in 90 μl growth media (DMEM, 2% FCS). Plates are incubated for 1 hour in a humidified incubator to allow the cells to adhere. Cells are treated with 8 concentrations of test compounds or DMSO alone for controls (final DMSO concentration 0.1%) and incubated at 37° C. for 2 hours. Then 20 μl of 5× concentrated lysis buffer (750 mM NaCl, 100 mM Tris pH7.4, 5 mM EDTA, 5 mM EGTA, 5% Triton X-100) is added, plates are sealed and incubated for 15 minutes at 4° C. with gentle shaking. After cell lysis, 25 μl cell lysate is transferred to a MesoScale plate coated with an antibody to pS6RP Ser240/244 (MesoScale Discovery K150DGD-3) or an antibody to pAkt Ser 473 (MesoScale Discovery K151DGD-3). Plates have been blocked before by incubation with 150 μl MesoScale Discovery Blocking Solution-A for 1 hour at room temperature followed by washing with 150 μl 1× Tris wash buffer per well. After the transfer of the cell lysate to the MSD plate, the pS6RP (or pAkt) protein is captured on the coated antibody by incubation at room temperature for 1 hour with gentle shaking. After the capture step the plate is washed three times with 150 μl of 1× Tris wash buffer per well. Then 25 μl detection antibody conjugated with a Sulfo-Tag is added and incubated for 1 hour at room temperature with gentle shaking. Subsequently the antibody solution is removed and the plate is washed 3 times with 150 μl 1× Tris wash buffer per well and 150 μl Read buffer is added. The plates are analysed on a MSD 2400 Plate Reader (MesoScale Discovery). Data analysis is performed using nonlinear regression for a sigmoidal dose-response with a variable slope.

[3] = tested on: S6RP serine-240/244 phosphorylation in HEK293T/17 cells; experiment: In vitro phospho-S6 cellular assay (pS6RP S240/244); type: cell-based; conditions: Homo sapiens, Table 6, 2 hours, S6RP Ser240/244, read-out: pS6 (phospho-S6 cell assay data, activity level)
Procedure, shortened: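 HEK293T/17 cells in DMEM with 2% FCS treated with 8 compound concentrations (0.1% DMSO) for 2 h at 37 °C, then lysed. Phospho-S6RP Ser240/244 or phospho-Akt Ser473 quantified by MesoScale sandwich immunoassay with Sulfo-Tag detection; IC50 from variable-slope sigmoidal fit.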

T1 sequence (P42338 whole entry): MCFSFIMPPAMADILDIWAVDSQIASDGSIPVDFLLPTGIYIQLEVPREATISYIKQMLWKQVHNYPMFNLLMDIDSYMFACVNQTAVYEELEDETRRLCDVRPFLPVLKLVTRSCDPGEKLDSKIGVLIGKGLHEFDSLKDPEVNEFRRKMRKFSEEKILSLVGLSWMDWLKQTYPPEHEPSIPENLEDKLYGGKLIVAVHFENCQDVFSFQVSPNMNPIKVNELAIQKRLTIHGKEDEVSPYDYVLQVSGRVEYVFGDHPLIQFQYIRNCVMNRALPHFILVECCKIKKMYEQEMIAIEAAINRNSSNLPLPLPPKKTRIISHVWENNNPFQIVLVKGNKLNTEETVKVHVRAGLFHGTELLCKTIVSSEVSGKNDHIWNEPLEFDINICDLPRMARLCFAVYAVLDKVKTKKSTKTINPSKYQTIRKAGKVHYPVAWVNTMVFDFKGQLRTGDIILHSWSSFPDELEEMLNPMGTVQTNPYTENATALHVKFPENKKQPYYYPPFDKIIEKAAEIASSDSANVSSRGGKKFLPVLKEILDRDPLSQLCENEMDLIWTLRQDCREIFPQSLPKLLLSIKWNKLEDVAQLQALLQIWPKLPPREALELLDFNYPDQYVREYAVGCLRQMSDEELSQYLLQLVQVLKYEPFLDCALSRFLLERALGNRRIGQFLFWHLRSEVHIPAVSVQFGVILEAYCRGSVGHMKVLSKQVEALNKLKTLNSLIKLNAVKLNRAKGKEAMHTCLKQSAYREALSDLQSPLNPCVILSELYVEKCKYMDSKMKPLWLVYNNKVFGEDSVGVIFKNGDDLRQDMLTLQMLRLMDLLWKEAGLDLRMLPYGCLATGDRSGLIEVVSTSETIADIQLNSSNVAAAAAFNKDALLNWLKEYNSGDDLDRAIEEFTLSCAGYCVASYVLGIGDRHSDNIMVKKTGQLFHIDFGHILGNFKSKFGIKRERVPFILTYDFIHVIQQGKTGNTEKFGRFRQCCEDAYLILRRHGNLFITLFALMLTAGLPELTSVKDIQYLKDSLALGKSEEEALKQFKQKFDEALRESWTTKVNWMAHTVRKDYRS
T1 sequence (P27986 whole entry partner): as the sequence (P27986 whole entry partner) above

IC50 (PI3Kβ) | IC50 [1] | IC50 (mTOR) | IC50 (PI3Kγ) | IC50 (PI3Kα) | IC50 (PI3K delta (PI3Kd)) | Structure (SMILES) | IC50 [2] | IC50 [3]
≥ 10 µM | ≥ 10 µM | < 0.1 µM | ≥ 10 µM | ≥ 10 µM | ≥ 10 µM | C[C@H]1COCCN1c1cc(-c2cc(F)ccc2S(C)(=O)=O)nc(-c2ccc(NC(=O)NCCO)cc2)n1 [Example 78, (S)-1-(4-(4-(5-fluoro-2-(methylsulfonyl)phenyl)-6-(3-methylmorpholino)pyrimidin-2-yl)phenyl)-3-(2-hydroxyethyl)urea] | < 0.1 µM | < 0.1 µM
≥ 10 µM | ≥ 10 µM | 0.1 to 1 µM | ≥ 10 µM | ≥ 10 µM | ≥ 10 µM | C[C@H]1COCCN1c1cc(-c2cc(F)ccc2S(C)(=O)=O)nc(-c2ccc(NC(=O)NC3CC3)cc2)n1 [Example 77, (S)-1-cyclopropyl-3-(4-(4-(5-fluoro-2-(methylsulfonyl)phenyl)-6-(3-methylmorpholino)pyrimidin-2-yl)phenyl)urea] | < 0.1 µM | < 0.1 µM
≥ 10 µM | ≥ 10 µM | 0.1 to 1 µM | ≥ 10 µM | ≥ 10 µM | ≥ 10 µM | C[C@@H](CO)NC(=O)Nc1ccc(-c2cc(-c3cc(F)ccc3S(C)(=O)=O)nc(N3CCOC[C@@H]3C)n2)cc1 [Example 74, 1-(4-(6-(5-fluoro-2-(methylsulfonyl)phenyl)-2-((S)-3-methylmorpholino)pyrimidin-4-yl)phenyl)-3-((S)-1-hydroxypropan-2-yl)urea] | < 0.1 µM | < 0.1 µM
